One test has as its system Sphaerotheca fuliginea. In words: Cucumber Powdery Mildew (CPM) protectant test in the greenhouse. As to conditions: 300 g/ha, 100 is total disease control, 0 is no disease control. It counts as in vivo. In a few lines:
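Protectant format: one day after spraying with test compound (A/M/W 1:1:2), cotyledon-plus-one-leaf cucumber plants were misted with Sphaerotheca spores at 2×10^5/ml. Greenhouse disease development; percent control scored at day 7 (100 = total, 0 = none).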

Another test deals with Pyricularia oryzae. In words: whole plant or invertebrate. Format: in vivo. As to conditions: protectant, 300 g/ha, greenhouse; 100 is total disease control, 0 is no disease control.
For a further test, the system named is Southern Armyworm. Nature of the test: Protocol 1 Southern Armyworm (AW) foliar spray test. It counts as in vivo, Spodoptera eridania. On the procedure:
(§1) A test solution containing 1250 parts per million (ppm) was prepared by dissolving the test compound in […] of a second solvent (acetone: water, 1:1) to give an acetone:water: methanol system of 50: 40:10.
(§2) The enclosed spraying chamber consisted of a single spray nozzle mounted on a boom moving at a fixed speed and distance over stationary targets. The vertical distance from the nozzle tip to the targets was adjusted to give rates varying from 150 g/ha to 600 g/ha
Individual fully expanded primary lima bean (Phaseolus limensis) leaves were placed bottom side up on moistened pieces of filter paper in Petri dishes. The leaves were sprayed with the test solutions and allowed to dry. The dishes were infested with 5 third instar larvae of the southern armyworm, covered with the lids, and held at 27° C. Armyworm control was rated by visual inspection after 48 hours. […] A rating of 0 indicated no dead larvae and normal feeding. Intermediate control was indicated by intermediate ratings.

The subject of the next test is Mexican Bean Beetle. Nature of the test: Protocol 1 Mexican Bean Beetle (BB) foliar spray test. It counts as in vivo, Epilachna verivestis. The following applies: control rated after 48 hours (100 = all larvae dead). Here is the method:
as §1, §2
Individual fully expanded primary lima bean (Phaseolus limensis) leaves were placed bottom side up on moistened pieces of filter paper in Petri dishes. The leaves were sprayed with the test solutions and allowed to dry. The dishes were infested with 5 third instar larvae of the mexican bean beetle, covered with the lids, and held at 27° C. Bean beetle control was rated by visual inspection after 48 hours. […] A rating of 0 indicated no dead larvae and normal feeding. Intermediate control was indicated by intermediate ratings.

The next test has as its system Two-Spotted Spider Mite. Nature of the test: Protocol 1 Two-Spotted Spider Mite (MTA) foliar spray test. The following applies: percentage of mites killed 1-day post-treatment. Format: in vivo, Tetranychus urticae. Here is the method:
as §1, §2
A pad of moistened cotton was placed in a Petri dish. A 1-inch square section cut from a fully expanded primary lima bean (Phaseolus limensis) leaf was positioned bottom side up on the moist cotton. The leaf square was infested with approximately 50 adult female mites. The dishes were sprayed with the test solutions and held at 27° C. for mortality determination 1-day post-treatment. The percentage of mites killed were rated from 100% (all dead) to 0% (all alive).

From US7494996B2 (priority 2000, dated 2009) come the findings set out here.

With `CC(C)(C)n1nc(-c2ccc(Cl)cc2)ncc1=O` [Compound 241], the “Cucumber Powdery Mildew (CPM) protectant fungicide data, percent control” value (shortened to “Cucumber Powdery Mildew … percent control”) in the test on Sphaerotheca fuliginea is on record as 0 percent control. Also, the “Rice Blast (RB) protectant fungicide data, percent control” value (“Rice Blast … percent control” for short) in the test on Pyricularia oryzae is listed as 50 percent control. Further, the AW in the test on Southern Armyworm (Protocol 1, DOSE 300) was found to be 0. Also, the BB in the test with Mexican Bean Beetle (Protocol 1, DOSE 300) is given as 0. This compound returned an MTA with Two-Spotted Spider Mite (Protocol 1, DOSE 300) of 100%.
Take `O=c1cnc(-c2ccc(Cl)cc2)nn1CC(F)(F)F` [Compound 233]: the “Cucumber Powdery Mildew … percent control” value in the test on Sphaerotheca fuliginea was 80 percent control. Besides, the “Rice Blast … percent control” value with Pyricularia oryzae is listed as 100 percent control. The AW in the test on Southern Armyworm (Protocol 1, DOSE 300) was 50. In the test with Mexican Bean Beetle (Protocol 1, DOSE 300), this compound gave a BB of 75. Moreover, the MTA in the test with Two-Spotted Spider Mite (Protocol 1, DOSE 300) was found to be 0%.
On the same counts, the results for `O=c1cnc(-c2ccc(Cl)cc2)nn1Cc1ccccc1` [Compound 240] are 75 percent control, 95 percent control, 50, 75 and 100%.
Take `O=C1CNC(c2cc(Cl)cc(Cl)c2)=NN1CC(F)(F)F` [Compound 43]: the “Cucumber Powdery Mildew … percent control” value in the test with Sphaerotheca fuliginea is 80 percent control. In addition, the “Rice Blast … percent control” value in the test with Pyricularia oryzae was 99 percent control. Besides, the AW in the test on Southern Armyworm (Protocol 1, DOSE 150) is on record as 50. Further, the BB in the test on Mexican Bean Beetle (Protocol 1, DOSE 150) is given as 0. Also, in the test on Two-Spotted Spider Mite (Protocol 1, DOSE 150), the MTA is 0%.
On the same counts, the results for `O=C1CNC(Cc2ccccc2)=NN1CC(F)(F)F` [Compound 44] are 0 percent control, 85 percent control, 75, 0 and 0%.
On to `CC(=O)N1CC(=O)N(CC(F)(F)F)N=C1c1ccc(Cl)cc1` [Compound 40], for which the “Cucumber Powdery Mildew … percent control” value in the test on Sphaerotheca fuliginea was 0 percent control. Further, the “Rice Blast … percent control” value in the test with Pyricularia oryzae came to 90 percent control. This compound also yielded an AW in the test with Southern Armyworm (Protocol 1, DOSE 300) of 0. The BB in the test on Mexican Bean Beetle (Protocol 1, DOSE 300) is given as 50. The MTA in the test with Two-Spotted Spider Mite (Protocol 1, DOSE 300) is given as 90%.
Taken in the same sequence, the figures for `O=C1CNC(c2ccccc2)=NN1CC(F)(F)F` [Compound 33] were 75 percent control, 80 percent control, 0, 100 and 75%.
Regarding `O=C1CNC(c2cccc(Cl)c2)=NN1CC(F)(F)F` [Compound 37], the “Cucumber Powdery Mildew … percent control” value in the test with Sphaerotheca fuliginea was determined as 75 percent control. In the test on Pyricularia oryzae, the “Rice Blast … percent control” value is listed as 95 percent control. The compound further returned an AW in the test with Southern Armyworm (Protocol 1, DOSE 300) of 100. The compound further registered a BB in the test with Mexican Bean Beetle (Protocol 1, DOSE 300) of 75. In the test on Two-Spotted Spider Mite (Protocol 1, DOSE 300), the MTA is reported as 75%.
In the case of `CCC(C)N1N=C(C2CCCCC2)NCC1=O` (centres unmarked) [Compound 48], in the test with Sphaerotheca fuliginea, the “Cucumber Powdery Mildew … percent control” value came to 0 percent control. Also, in the test on Pyricularia oryzae, the “Rice Blast … percent control” value is given as 50 percent control. Further, the AW in the test on Southern Armyworm (Protocol 1, DOSE 150) was determined as 0. Besides, the BB in the test with Mexican Bean Beetle (Protocol 1, DOSE 150) turned out to be 0. For the same compound, the MTA in the test on Two-Spotted Spider Mite (Protocol 1, DOSE 150) is given as 75%.
Consider `Cc1ccc(C2=NN(CC(F)(F)F)C(=O)CN2)cc1` [Compound 41], for which the “Cucumber Powdery Mildew … percent control” value in the test on Sphaerotheca fuliginea is reported as 50 percent control. The “Rice Blast … percent control” value with Pyricularia oryzae is recorded as 100 percent control. In the test on Southern Armyworm (Protocol 1, DOSE 300), this compound registered an AW of 0. The same compound gave a BB in the test on Mexican Bean Beetle (Protocol 1, DOSE 300) of 50. Moreover, the MTA in the test with Two-Spotted Spider Mite (Protocol 1, DOSE 300) was determined as 0%.
Regarding `O=c1cnc(Cc2ccccc2)nn1CC(F)(F)F` [Compound 249], in the test on Sphaerotheca fuliginea, the “Cucumber Powdery Mildew … percent control” value is 0 percent control. In addition, in the test on Pyricularia oryzae, the “Rice Blast … percent control” value is listed as 85 percent control. In the test with Southern Armyworm (Protocol 1, DOSE 150), the AW is reported as 100. Also, in the test with Mexican Bean Beetle (Protocol 1, DOSE 150), the BB was found to be 0. This compound showed an MTA in the test on Two-Spotted Spider Mite (Protocol 1, DOSE 150) of 90%.
With `O=C1CNC(c2ccc(Cl)cc2)=NN1c1ccccc1` [Compound 29], the “Cucumber Powdery Mildew … percent control” value in the test with Sphaerotheca fuliginea is given as 90 percent control. Moreover, the “Rice Blast … percent control” value in the test on Pyricularia oryzae is listed as 90 percent control. Also, in the test on Southern Armyworm (Protocol 1, DOSE 300), the AW is on record as 0. The same compound returned a BB with Mexican Bean Beetle (Protocol 1, DOSE 300) of 0. This compound also registered an MTA with Two-Spotted Spider Mite (Protocol 1, DOSE 300) of 90%.
In the case of `Cc1ccc(-c2ncc(=O)n(CC(F)(F)F)n2)cc1` [Compound 247], the “Cucumber Powdery Mildew … percent control” value with Sphaerotheca fuliginea is 80 percent control. Further, the “Rice Blast … percent control” value with Pyricularia oryzae was determined as 100 percent control. Besides, the AW in the test with Southern Armyworm (Protocol 1, DOSE 300) turned out to be 0. In the test with Mexican Bean Beetle (Protocol 1, DOSE 300), the BB is on record as 90. Besides, in the test with Two-Spotted Spider Mite (Protocol 1, DOSE 300), the MTA came out at 0%.
